Legend:
Conditions in all cases: 72 h
Calu-3 [1] = experiment: cell viability relative to DMSO; higher = less toxic
Caco-2 [2] = experiment: as above
Vero E6 [3] = experiment: as above
HepG2 [4] = experiment: as above
Calu-3 [5] = experiment: relative viability EC50 (midpoint between 100% and the lowest measured viability); higher = less toxic
Caco-2 [6] = experiment: as above
Vero E6 [7] = experiment: as above
HepG2 [8] = experiment: as above
Calu-3 [9] = experiment: drug sensitivity score (DSS) for viability; higher = more toxic; extreme values may be limits of the assay
Caco-2 [10] = experiment: as above
Vero E6 [11] = experiment: as above
HepG2 [12] = experiment: as above
U2OS [13] = experiment: cell viability relative to DMSO; higher = less toxic
U2OS [14] = experiment: relative viability EC50 (midpoint between 100% and the lowest measured viability); higher = less toxic
U2OS [15] = experiment: drug sensitivity score (DSS) for viability; higher = more toxic; extreme values may be limits of the assay

Row | Compound | cell viability (Calu-3 [1]; 1 nM) [%] | cell viability (Calu-3 [1]; 10 nM) [%] | cell viability (Calu-3 [1]; 100 nM) [%] | cell viability (Calu-3 [1]; 1000 nM) [%] | cell viability (Calu-3 [1]; 10000 nM) [%] | cell viability (Caco-2 [2]; 1 nM) [%] | cell viability (Caco-2 [2]; 10 nM) [%] | cell viability (Caco-2 [2]; 100 nM) [%] | cell viability (Caco-2 [2]; 1000 nM) [%] | cell viability (Caco-2 [2]; 10000 nM) [%] | cell viability (Vero E6 [3]; 1 nM) [%] | cell viability (Vero E6 [3]; 10 nM) [%] | cell viability (Vero E6 [3]; 100 nM) [%] | cell viability (Vero E6 [3]; 1000 nM) [%] | cell viability (Vero E6 [3]; 10000 nM) [%] | cell viability (HepG2 [4]; 1 nM) [%] | cell viability (HepG2 [4]; 10 nM) [%] | cell viability (HepG2 [4]; 100 nM) [%] | cell viability (HepG2 [4]; 1000 nM) [%] | cell viability (HepG2 [4]; 10000 nM) [%] | relative viability EC50 (Calu-3 [5]) [µM] | relative viability EC50 (Caco-2 [6]) [µM] | relative viability EC50 (Vero E6 [7]) [µM] | relative viability EC50 (HepG2 [8]) [µM] | drug sensitivity score (Calu-3 [9]) | drug sensitivity score (Caco-2 [10]) | drug sensitivity score (Vero E6 [11]) | drug sensitivity score (HepG2 [12]) | cell viability (U2OS [13]; 1 nM) [%] | cell viability (U2OS [13]; 10 nM) [%] | cell viability (U2OS [13]; 100 nM) [%] | cell viability (U2OS [13]; 1000 nM) [%] | cell viability (U2OS [13]; 10000 nM) [%] | relative viability EC50 (U2OS [14]) [µM] | drug sensitivity score (U2OS [15])
1 | CCOC(=O)NNc1ccc(N(CC)CC(C)O)nn1 (centres undefined) [cadralazine] | 104 | 96.3 | 91.6 | 88.1 | 101 | 110 | 97.4 | 100 | 102 | 102 | 105 | 100 | 94.8 | 100 | 95.2 | 95.6 | 103 | 97.9 | 96.6 | 106 | > 10 | > 10 | > 10 | > 10 | 0 | 0 | 0 | 0 |  |  |  |  |  |  | 
2 | COc1ccc(-c2nc(C(=O)N3CCN(C)CC3)sc2-c2ccc(OC)cc2)cc1 | 97.5 | 101 | 99.7 | 109 | 106 | 99.2 | 94.6 | 108 | 102 | 102 | 107 | 104 | 102 | 103 | 95.6 | 98.7 | 95.7 | 104 | 107 | 98.5 | > 10 | > 10 | > 10 | > 10 | 0 | 0 | 0 | 0 |  |  |  |  |  |  | 
3 | O=C(O)[C@H]1O[C@@H](Oc2cc3oc(-c4ccccc4)cc(=O)c3c(O)c2O)[C@H](O)[C@@H](O)[C@@H]1O [baicalin] | 103 | 98.5 | 90.4 | 104 | 109 | 109 | 99 | 95.7 | 93.3 | 97.5 | 99.7 | 103 | 102 | 103 | 102 |  |  |  |  |  | > 10 | > 10 | > 10 |  | 0 | 0 | 0 |  | 105 | 93.2 | 104 | 101 | 91.8 | > 10 | 0
4 | COc1ccc(S(=O)(=O)N2CCC[C@H]2C(=O)Nc2cc(C)cc(C)c2)cc1 |  |  |  |  |  | 91 | 93.1 | 98.1 | 102 | 90 | 102 | 102 | 107 | 98.4 | 99.7 | 101 | 99 | 113 | 104 | 104 |  | > 10 | > 10 | > 10 |  | 0 | 0 | 0 | 103 | 100 | 98.1 | 102 | 99.2 | > 10 | 0
5 | Cc1c[nH]c2ncnc(N3CCC(CN)(C(=O)Nc4cccc(OC(=O)N(C)C)c4)CC3)c12 [LX7101] | 82.4 | 99.4 | 110 | 125 | 114 | 88.3 | 97.8 | 98.9 | 96 | 82.4 | 93.2 | 100 | 92.4 | 102 | 112 | 99.8 | 99.2 | 101 | 102 | 86.4 | > 10 | > 10 | > 10 | > 10 | 0 | 0.9 | 0 | 0.1 | 98 | 97.4 | 98.5 | 94 | 70.9 |  | 2.2
6 | Cn1c(N2CCCCS2(=O)=O)nc(C(=O)NCc2ccc(F)cc2)c(O)c1=O | 98.4 | 89.8 | 95.6 | 102 | 97.4 | 85.9 | 88.6 | 88.9 | 92.7 | 81.1 | 103 | 96.6 | 100 | 102 | 85.4 | 103 | 96.9 | 105 | 106 | 46.9 | > 10 | > 10 | > 10 | 3.68 | 0 | 0 | 0.1 | 2.4 | 94.3 | 100 | 94.5 | 93.7 | 54.9 |  | 3.4
7 | Cc1ccc(/C=C2\CNC/C(=C\c3ccc(C)cc3)C2=O)cc1 | 92.7 | 112 | 105 | 104 | 79 | 103 | 98.6 | 94 | 94.1 | 38.8 | 101 | 97.9 | 104 | 103 | 50.2 | 119 | 99.2 | 110 | 101 | 12.4 | > 10 | 2.36 |  | 3.24 | 0.5 | 4.3 | 2.4 | 4.8 | 105 | 106 | 101 | 98 | 13.4 | 3 | 5.1
8 | CN1CCc2cc3c(cc2[C@H]1[C@@H]1OC(=O)c2c1ccc1c2OCO1)OCO3 [bicuculline-(+)] |  |  |  |  |  | 93.2 | 86.7 | 96.4 | 96.5 | 100 | 95.2 | 98.6 | 94.7 | 102 | 104 | 91.1 | 98.3 | 88.8 | 97.8 | 106 |  | > 10 | > 10 | > 10 |  | 0 | 0 | 0 | 97.4 | 96.1 | 97.6 | 99.5 | 99.8 | > 10 | 0
9 | O=C(NC(NC(=S)Nc1ccc(F)c([N+](=O)[O-])c1)C(Cl)(Cl)Cl)C(c1ccccc1)c1ccccc1 (centres undefined) [CGK-733] | 97.8 | 103 | 96.6 | 104 | 52.8 | 99.2 | 106 | 93.9 | 90.3 | 10.7 | 98.8 | 100 | 101 | 97.8 | 20 | 95.8 | 94.2 | 104 | 96.7 | 7.9 |  | 2.26 | 2.96 | 2.91 | 2.2 | 6.6 | 4.7 | 5.6 | 94.4 | 103 | 96.4 | 95.9 | 27.4 | 2.72 | 4.6
10 | CO/N=C(\C(=O)N[C@@H]1C(=O)N2C(C(=O)O)=C(COC(N)=O)CS[C@H]12)c1ccco1 [CEFUROXIME SODIUM] |  |  |  |  |  | 106 | 90.6 | 98.6 | 107 | 99.4 | 101 | 95.6 | 97.6 | 95.1 | 110 | 97.7 | 109 | 95.4 | 97.8 | 103 |  | > 10 | > 10 | > 10 |  | 0 | 0 | 0 | 97.3 | 95 | 96.8 | 98.7 | 103 | > 10 | 0
11 | OCc1ccc(CO)o1 [2,5-furandimethanol] |  |  |  |  |  | 89.2 | 100 | 84.4 | 95.1 | 103 | 97.1 | 94.3 | 88.2 | 94.4 | 107 | 98.6 | 97.3 | 108 | 106 | 100 |  | > 10 | > 10 | > 10 |  | 0 | 0 | 0 | 95.4 | 104 | 96.6 | 98.5 | 99 | > 10 | 0
12 | CC(C)C[C@@H](C(=O)N[C@H](C(=O)OC1CCCC1)c1ccccc1)[C@H](O)C(=O)NO [tosedostat] | 96.2 | 101 | 74.6 | 69.7 | 59.8 | 90 | 105 | 93.6 | 88.6 | 84.1 | 99.7 | 99.1 | 104 | 102 | 106 | 105 | 87.8 | 88.5 | 80.1 | 66.7 |  | > 10 | > 10 |  | 8.9 | 1.1 | 0 | 4.6 | 97.7 | 103 | 96.3 | 98.3 | 70.9 |  | 1.5
13 | Nc1nc(N)c2nc(-c3ccccc3)c(N)nc2n1 [triamterene] | 103 | 101 | 93.6 | 97.9 | 102 | 104 | 120 | 97.8 | 106 | 98.8 | 97.9 | 98.2 | 101 | 98.6 | 70.4 | 97.9 | 83.3 | 85.9 | 88.7 | 88.1 | > 10 | > 10 |  | > 10 | 0 | 0 | 1.5 | 5.2 | 102 | 101 | 106 | 108 | 97.8 | > 10 | 0
14 | COc1ccc(-n2c(C)c([N+](=O)[O-])c3ccc(O)cc32)cc1 [ID-8] | 99.7 | 97.6 | 91.1 | 79.9 | 88.4 | 98.3 | 111 | 91 | 92.2 | 94.5 | 96.3 | 103 | 94.2 | 94.5 | 92.1 | 99.3 | 102 | 97.4 | 106 | 93.6 | > 10 | > 10 | > 10 | > 10 | 2.6 | 0 | 0 | 0 |  |  |  |  |  |  | 
15 | N#Cc1cccc(-c2nc(-c3cccnc3)no2)c1 [NS-9283] |  |  |  |  |  | 91.1 | 94.4 | 90.9 | 95 | 93.1 | 99.1 | 98.7 | 101 | 102 | 99.7 | 105 | 97.2 | 104 | 101 | 98.8 |  | > 10 | > 10 | > 10 |  | 0 | 0 | 0 | 100 | 101 | 97.1 | 98.6 | 99.7 | > 10 | 0

From the supplement of paper PMC13380429
